The target in test [1] is T1, IDO1 enzyme in the Hela cell (Homo sapiens, UniProt P14902).
T1 construct: endogenous in cells; host or cells: HeLa cells stimulated with interferon γ (100 ng/ml)
The experiment in a line: Cell activity: interferon γ-stimulated Hela cells, absorbance of supernatant at 480 nm. Type of test: cell-based. Particulars: interferon γ 100 ng/ml, 72 hours. The essentials:
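Kynurenine-type readout: supernatant from IFN-γ-stimulated (100 ng/ml final) HeLa cells, 72 h with compound, was acid-hydrolysed with trichloroacetic acid (50 °C, 30 min). After centrifugation, 2% dimethylaminobenzaldehyde/acetic acid added and absorbance measured at 480 nm.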

Another test deals with IDO1 enzyme (Homo sapiens, UniProt P14902). As to the kind of experiment: Determination of biochemical activity of IDO1 enzyme (absorbance at 320 nm). Conditions: room temperature, 3 hours. The essentials: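 Absorbance at 320 nm was measured after a 3-hour room-temperature reaction of enzyme with compound. Phosphate buffer at pH 7-8 was used; inhibition was derived from the absorption ratio and fitted to IC50.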
IDO1 enzyme, sequence (P14902 whole entry): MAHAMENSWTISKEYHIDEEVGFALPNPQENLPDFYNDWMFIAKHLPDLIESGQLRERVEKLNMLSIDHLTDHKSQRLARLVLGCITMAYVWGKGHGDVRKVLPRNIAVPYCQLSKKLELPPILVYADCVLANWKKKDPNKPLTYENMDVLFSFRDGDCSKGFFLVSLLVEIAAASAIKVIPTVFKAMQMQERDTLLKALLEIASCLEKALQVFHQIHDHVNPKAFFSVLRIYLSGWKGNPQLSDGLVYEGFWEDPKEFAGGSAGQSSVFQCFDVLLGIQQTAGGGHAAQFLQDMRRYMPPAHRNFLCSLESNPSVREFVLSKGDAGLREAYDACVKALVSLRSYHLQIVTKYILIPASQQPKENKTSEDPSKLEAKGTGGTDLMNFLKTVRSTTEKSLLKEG

The structures appear in SMILES notation. Where only a bound is given, the exact number is not on record here.

One may read the IC50 as the midpoint of a concentration-inhibition curve.

T1 sequence (P14902 whole entry): as above

For `CC(C)NC(=O)Nc1nocc1/C(=N/O)Nc1ccc(F)c(Br)c1` [Embodiment 92, (Z)-1-(4-(N-(3-bromo-4-fluorophenyl)-N′-hydroxyaminoiminomethyl)-isoxazole-3-substituted)-3-(isopropyl)urea], the IC50 (in test [1]; against IDO1 enzyme) was 0.1 to 1 µM throughout.
As for `CS(=O)(=O)NCCNC(=O)Nc1nocc1/C(=N/O)Nc1ccc(F)c(Br)c1` [Embodiment 93, (Z)-1-(4-(N-(3-bromo-4-fluorophenyl)-N′-hydroxyaminoiminomethyl)-isoxazole-3-substituted)-3-(2-methamidoethyl)urea], the half-inhibitory concentration (IC50) (in test [1]; at IDO1 enzyme) was below 0.001 µM throughout.
For the molecule `O=C(Nc1nocc1/C(=N/O)Nc1ccc(F)c(Br)c1)Nc1cccc2[nH]ccc12` [Embodiment 94, (Z)-1-(4-(N-(3-bromo-4-fluorophenyl)-N′-hydroxyaminoiminomethyl)-isoxazole-3-substituted)-3-(4-aminoindole)urea], the IC50 (in test [1]; on IDO1 enzyme) was 0.1 to 1 µM each time.
For `O=C(Nc1nocc1/C(=N/O)Nc1ccc(F)c(Br)c1)Nc1c[nH]c2ccccc12` [Embodiment 95, (Z)-1-(4-(N-(3-bromo-4-fluorophenyl)-N′-hydroxyaminoiminomethyl)-isoxazole-3-substituted)-3-(3-aminoindole)urea], the IC50 (in test [1]; at IDO1 enzyme) was 0.1 to 1 µM in each case.
On to `O=C(Nc1cccnc1)Nc1nocc1/C(=N/O)Nc1ccc(F)c(Br)c1` [Embodiment 96, (Z)-1-(4-(N-(3-bromo-4-fluorophenyl)-N′-hydroxyaminoiminomethyl)-isoxazole-3-substituted)-3-(3-aminopyridine)urea], for which the IC50 (in test [1]; against IDO1 enzyme) was 0.1 to 1 µM in each case.
Consider `COc1ccc(NC(=O)Nc2nocc2/C(=N/O)Nc2ccc(F)c(Cl)c2)cc1` [Embodiment 97, (Z)-1-(4-(N-(3-chloro-4-fluorophenyl)-N′-hydroxyaminoiminomethyl)-isoxazole-3-substituted)-3-(4-methoxyphenyl)urea], for which the IC50 (in test [1]; on IDO1 enzyme) was 0.1 to 1 µM in each case.
With `O=C(Nc1ccccc1)Nc1nocc1/C(=N/O)Nc1ccc(F)c(Cl)c1` [Embodiment 98, (Z)-1-(4-(N-(3-chloro-4-fluorophenyl)-N′-hydroxyaminoiminomethyl)-isoxazole-3-substituted)-3-(phenyl)urea], the IC50 (in test [1]; on IDO1 enzyme) was 0.1 to 1 µM in each case.
As to `O=C(Nc1nocc1/C(=N/O)Nc1ccc(F)c(Cl)c1)NC1CCCCC1` [Embodiment 99, (Z)-1-(4-(N-(3-chloro-4-fluorophenyl)-N′-hydroxyaminoiminomethyl)-isoxazole-3-substituted)-3-(cyclohexyl)urea], the IC50 (in test [1]; on IDO1 enzyme) was 0.1 to 1 µM each time.
For `COc1ccc(NC(=O)Nc2conc2/C(=N/O)Nc2ccc(F)c(Br)c2)cc1` [Embodiment 100, (Z)-1-(4-(N-(3-bromo-4-fluorophenyl)-N′-hydroxyaminoiminomethyl)-isoxazole-3-substituted)-4-(4-methoxyphenyl)urea], the IC50 (in test [1]; against IDO1 enzyme) was 0.1 to 1 µM each time.
On to `COc1cccc(NC(=O)Nc2conc2/C(=N/O)Nc2ccc(F)c(Br)c2)c1` [Embodiment 101, (Z)-1-(4-(N-(3-bromo-4-fluorophenyl)-N′-hydroxyaminoiminomethyl)-isoxazole-3-substituted)-4-(3-methoxyphenyl)urea], for which the IC50 (in test [1]; on IDO1 enzyme) was 0.1 to 1 µM each time.
For `O=C(Nc1conc1/C(=N/O)Nc1ccc(F)c(Br)c1)NC1CCCCC1` [Embodiment 103], the IC50 (in test [1]; against IDO1 enzyme) was 0.1 to 1 µM in each case.
On to `O=C(Nc1conc1/C(=N/O)Nc1ccc(F)c(Br)c1)NC1CCCC1` [Embodiment 104, (Z)-1-(4-(N-(3-bromo-4-fluorophenyl)-N′-hydroxyaminoiminomethyl)-isoxazole-3-substituted)-4-(cyclopentyl)urea], for which the IC50 (in test [1]; on IDO1 enzyme) was above 1 µM each time.
In the case of `O=C(Nc1conc1/C(=N/O)Nc1ccc(F)c(Br)c1)NC1CCC(O)CC1` (stereo not shown) [Embodiment 105], the IC50 (in test [1]; against IDO1 enzyme) was below 0.001 µM in each case.
Consider `O=C(Nc1conc1/C(=N/O)Nc1ccc(F)c(Br)c1)NC1CCNCC1` [Embodiment 106], for which the IC50 (in test [1]; on IDO1 enzyme) was below 0.001 µM each time.
On to `O=C(Nc1conc1/C(=N/O)Nc1ccc(F)c(Br)c1)NC1CC1` [Embodiment 107, (Z)-1-(4-(N-(3-bromo-4-fluorophenyl)-N′-hydroxyaminoiminomethyl)-isoxazole-3-substituted)-4-cyclopropylurea], for which the IC50 (in test [1]; at IDO1 enzyme) was above 1 µM throughout.
Regarding `NC1CCC(NC(=O)Nc2conc2/C(=N/O)Nc2ccc(F)c(Br)c2)CC1` (stereo not shown) [Embodiment 108], the IC50 (in test [1]; against IDO1 enzyme) was 0.1 to 1 µM each time.
As for `O=C(NCCCO)Nc1conc1/C(=N/O)Nc1ccc(F)c(Br)c1` [Embodiment 109], the IC50 (in test [1]; at IDO1 enzyme) was below 0.001 µM in each case.
As to `O=C(NCCO)Nc1conc1/C(=N/O)Nc1ccc(F)c(Br)c1` [Embodiment 110], the IC50 (in test [1]; against IDO1 enzyme) was below 0.001 µM throughout.
Turning to `NCCNC(=O)Nc1conc1/C(=N/O)Nc1ccc(F)c(Br)c1` [Embodiment 111], the IC50 (in test [1]; against IDO1 enzyme) was below 0.001 µM in each case.
`COc1ccc(NC(=O)Nc2conc2/C(=N/O)Nc2ccc(F)c(Cl)c2)cc1` [Embodiment 112, (Z)-1-(4-(N-(3-chloro-4-fluorophenyl)-N′-hydroxyaminoiminomethyl)-isoxazole-3-substituted)-4-(4-methoxyphenyl)urea]: the IC50 (in test [1]; at IDO1 enzyme) was 0.1 to 1 µM each time.
Turning to `O=C(Nc1ccccc1)Nc1conc1/C(=N/O)Nc1ccc(F)c(Cl)c1` [Embodiment 113, (Z)-1-(4-(N-(3-chloro-4-fluorophenyl)-N′-hydroxyaminoiminomethyl)-isoxazole-3-substituted)-4-phenylurea], the IC50 (in test [1]; at IDO1 enzyme) was 0.1 to 1 µM throughout.
On to `O=C(Nc1conc1/C(=N/O)Nc1ccc(F)c(Cl)c1)NC1CCCCC1` [Embodiment 114], for which the 50% inhibitory concentration (IC50) (in test [1]; against IDO1 enzyme) was below 0.001 µM throughout.
Consider `COc1ccc(NC(=S)Nc2nonc2/C(=N/O)Nc2ccc(F)c(Br)c2)cc1` [Embodiment 115, (Z)-1-(4-(N-(3-bromo-4-fluorophenyl)-N′-hydroxyaminoiminomethyl)-1,2,5-oxadiazole-3-substituted)-3-(4-methoxyphenyl)thiourea], for which the IC50 (in test [1]; against IDO1 enzyme) was 0.1 to 1 µM in each case.
On to `O/N=C(\Nc1ccc(F)c(Br)c1)c1nonc1NC(=S)Nc1ccccc1` [Embodiment 116, (Z)-1-(4-(N-(4-bromo-3-fluorophenyl)-N′-hydroxyaminoiminomethyl)-1,2,5-oxadiazole-3-substituted)-3-phenylthiourea], for which the IC50 (in test [1]; at IDO1 enzyme) was 0.1 to 1 µM each time.
Turning to `O/N=C(\Nc1ccc(F)c(Br)c1)c1nonc1NC(=S)Nc1ccc(O)cc1` [Embodiment 117, (Z)-1-(4-(N-(3-bromo-4-fluorophenyl)-N′-hydroxyaminoiminomethyl)-1,2,5-oxadiazole-3-substituted)-3-(4-hydroxyphenyl)thiourea], the IC50 (in test [1]; at IDO1 enzyme) was below 0.001 µM throughout.
Turning to `Nc1ccc(NC(=S)Nc2nonc2/C(=N/O)Nc2ccc(F)c(Br)c2)cc1` [Embodiment 118, (Z)-1-(4-(N-(3-bromo-4-fluorophenyl)-N′-hydroxyaminoiminomethyl)-1,2,5-oxadiazole-3-substituted)-3-(4-aminophenyl)thiourea], the half-maximal inhibitory concentration (IC50) (in test [1]; against IDO1 enzyme) was below 0.001 µM throughout.
For `O/N=C(\Nc1ccc(F)c(Br)c1)c1nonc1NC(=S)Nc1ccc(C(F)(F)F)cc1` [Embodiment 119, (Z)-1-(4-(N-(3-bromo-4-fluorophenyl)-N′-hydroxyaminoiminomethyl)-1,2,5-oxadiazole-3-substituted)-3-(4-trifluoromethylphenyl)thiourea], the 50% inhibitory concentration (IC50) (in test [1]; on IDO1 enzyme) was above 1 µM each time.
In the case of `COc1ccc(NC(=S)Nc2nonc2/C(=N/O)Nc2ccc(F)c(Br)c2)c(F)c1` [Embodiment 120], the IC50 (in test [1]; at IDO1 enzyme) was above 1 µM each time.
As to `O/N=C(\Nc1ccc(F)c(Br)c1)c1nonc1NC(=S)NC1CCCCC1` [Embodiment 121, (Z)-1-(4-(N-(3-bromo-4-fluorophenyl)-N′-hydroxyaminoiminomethyl)-1,2,5-oxadiazole-3-substituted-)-3-(cyclohexyl)thiourea], the IC50 (in test [1]; on IDO1 enzyme) was 0.1 to 1 µM in each case.
On to `O/N=C(\Nc1ccc(F)c(Br)c1)c1nonc1NC(=S)NC1CCCC1` [Embodiment 122, (Z)-1-(4-(N-(3-bromo-4-fluorophenyl)-N′-hydroxyaminoiminomethyl)-1,2,5-oxadiazole-3-substituted)-3-(cyclopentyl)thiourea], for which the IC50 (in test [1]; against IDO1 enzyme) was above 1 µM throughout.
Consider `O/N=C(\Nc1ccc(F)c(Br)c1)c1nonc1NC(=S)NC1CCC(O)CC1` (stereo not shown) [Embodiment 123, (Z)-1-(4-(N-(3-bromo-4-fluorophenyl)-N′-hydroxyaminoiminomethyl)-1,2,5-oxadiazole-3-substituted)-3-(4-hydroxycyclohexyl)thiourea], for which the IC50 (in test [1]; against IDO1 enzyme) was below 0.001 µM throughout.
Consider `O/N=C(\Nc1ccc(F)c(Br)c1)c1nonc1NC(=S)NC1CCNCC1` [Embodiment 124, (Z)-1-(4-(N-(3-bromo-4-fluorophenyl)-N′-hydroxyaminoiminomethyl)-1,2,5-oxadiazole-3-substituted)-3-(piperidine-4-substituted)thiourea], for which the IC50 (in test [1]; against IDO1 enzyme) was below 0.001 µM throughout.

For the origin of these results see patent US11014895B2, “Heterocyclic urea compound, and drug composition and application thereof” (CHINA PHARMACEUTICAL UNIVERSITY, priority 2017, dated 2021).
